From patent US4742058A, “Polyprenyl compound, process for the production thereof and drug containing the same” (Eisai Co., Ltd., priority 1982, dated 1988)

Assays:
[1] = system: platelet aggregation provoked by PAF (washed rabbit platelets); assay: Anti-PAF activity (inhibition of PAF-provoked platelet aggregation in washed platelets, nephelometry); format: cell-based; details: Oryctolagus cuniculus, PAF 30 ng/ml, read-out: Inhibition rate PAF
Method: (a) Preparation of washed platelet suspension (hereinafter referred to as W.P.)
(§1) A blood sample was collected from a carotid artery of a male rabbit weighing 2.5 kg, while adding thereto one volume of a 3.13% sodium citrate solution per 9 volumes of blood as a […]. The resulting blood was centrifuged at 200 xg for 20 minutes to separate out platelet-rich plasma (hereinafter referred to as PRP). This PRP was centrifuged at 1,000 xg for 15 minutes to separate the platelets from the plasma. The deposited platelets were washed twice with a Tyrode solution (Tyrode-Ca^++), from which Ca^++ had been removed and to which 1% bovine serum albumin (BSA) had been added, such that 9×10^5 platelets per μl were finally suspended in the Tyrode solution.
(b) Preparation of specimens and PAF
Specimens were dissolved or suspended in a physiological saline. PAF was dissolved in a Tyrode solution containing 1% BSA. PAF synthesized from D-mannitol in accordance with a method disclosed by J. J. Godfroid et al was used (FEBS Letters 116, 161-164, 1980).
(c) Measurement of platelet aggregation
(§2) Platelet aggregation measurements were conducted according to nephelometry described by Born et al using a platelet aggregation meter manufactured by Schenko Co. Specimen solutions having various concentrations of test compounds and 0.25 ml of W.P. were subjected to preincubation at 37° C. for 4 minutes, and then PAF was added thereto to give a final PAF concentration of 30 ng/ml to provoke platelet aggregation. The transmittance of the W.P. before aggregation, that is, before the addition of the aggregation provoking agent, was rated as 0, and the transmittance of the Tyrode solution was rated as 100. After the addition of the PAF solution to the W.P., light transmittance increased as aggregation proceeded. The value of the light transmittance at the time when the aggregation had proceeded to a maximum was rated as the maximum aggregation (hereinafter referred to as MA) which was used as an index of the degree of aggregation.
(§3) The inhibition rate was calculated according to the following equation. The aggregation in a W.P.-containing physiological saline solution free of test compound, as a control, was rated as 0% aggregation inhibition. [formula] wherein M.A. Control: maximum aggregation after platelet aggregation in PAF was provoked, after the addition of physiological saline.
M.A. Sample: maximum aggregation after platelet aggregation in PAF was provoked, after the addition of the test compound.

[2] = system: platelet aggregation provoked by bovine thrombin (washed rabbit platelets); assay: Antithrombic activity (inhibition of thrombin-provoked platelet aggregation); format: cell-based; details: Oryctolagus cuniculus, bovine thrombin 0.2 units/ml, read-out: Inhibition rate Thrombin (%)
Method: as §1, §2, §3
(2) Antithrombic activity
The measurement of the antithrombic activity was conducted in the same manner as described above, except that bovine thrombin at a final concentration of 0.2 units/ml was used as the platelet aggregation provoking agent in place of PAF.

Row | Compound | inhibition at 50 µM [1] | inhibition at 50 µM [2] | inhibition at 20 µM [1] | inhibition at 20 µM [2]
1 | CC(C)=CCC/C(C)=C/CC/C(C)=C/CC/C(C)=C/C(=O)N(CCO)CCO | 76.4% |  |  | 
2 | CC(C)=CCC/C(C)=C/CCC(C)CC(=O)NCCO (centres unmarked) | 31.4% |  |  | 
3 | CC(C)=CCC/C(C)=C/CC/C(C)=C/CC/C(C)=C/CC/C(C)=C/C(=O)NCCO | 22.7% |  |  | 
4 | CC(C)=CCC/C(C)=C/CC/C(C)=C/C(=O)NCCO | 18.7% |  |  | 
5 | CC(C)=CCC/C(C)=C/CC/C(C)=C/CC/C(C)=C/C(=O)N1CCCC(O)C1 (centres unmarked) | 27.4% | 19.2% |  | 
6 | CC(C)=CCC/C(C)=C/CC/C(C)=C/CC/C(C)=C/C(=O)N1CCCCC1CO (centres unmarked) | 34.4% | 27.4% |  | 
7 | CCN1CCCC(NC(=O)/C=C(\C)CC/C=C(\C)CC/C=C(\C)CCC=C(C)C)C1 (centres unmarked) | 80.3% | 24.2% |  | 
8 | CC(C)CCCC(C)Cc1ccc(C(=O)NCCO)cc1 (centres unmarked) |  |  | 57.8% | 
9 | CC(C)CCCC(C)Cc1ccc(C(=O)N(CCN(C)C)CCN(C)C)cc1 (centres unmarked) |  |  | 59.4% | 
10 | CC(C)CCCC(C)CCCc1ccc(C(C)CC(=O)N(CCN(C)C)CCN(C)C)cc1 (centres unmarked) | 82.6% |  | 57.8% | 
11 | CC(=CC(=O)NCCO)c1ccc(CCCC(C)CCCC(C)C)cc1 (centres unmarked) |  |  | 55.9% | 
12 | CC(=CC(=O)N(CCN(C)C)CCN(C)C)c1ccc(CCCC(C)CCCC(C)C)cc1 (centres unmarked) | 82.2% |  | 63.2% | 
13 | CC(C)CCCC(C)CCCC(C)Cc1ccc(C(=O)N(CCN(C)C)CCN(C)C)c(F)c1 (centres unmarked) |  |  | 64.9% | 
14 | CC(C)CCCC(C)CCCC(C)Cc1ccc(C(=O)N(CCN(C)C)CCN(C)C)c2ccccc12 (centres unmarked) |  |  | 59.3% | 
15 | CC(C)CCCC(C)CCCC(C)Cc1cccc2c(C(=O)N(CCN(C)C)CCN(C)C)cccc12 (centres unmarked) |  |  | 58.3% | 
16 | CC(C)CCCC(C)CCCC(C)Cc1ccc(C(=O)N(CCN(C)C)CCN(C)C)c2c1CCCC2 (centres unmarked) |  |  | 50.5% | 
17 | CC(C)=CCC/C(C)=C/CC/C(C)=C/CC/C(C)=C/CNC(=O)CN(C)C |  |  | 60.4% | 
18 | CC(C)=CCC/C(C)=C/CC/C(C)=C/CC/C(C)=C/CNC(=O)CCN |  |  | 59.1% | 
19 | CC(C)=CCC/C(C)=C/CC/C(C)=C/CC/C(C)=C/CNCCN(C)C |  |  | 37.1% | 
20 | CC(C)=CCC/C(C)=C/CC/C(C)=C/CC/C(C)=C/C(=O)NCCN(C)C |  |  | 74.3% | 
21 | CC(C)=CCC/C(C)=C/CC/C(C)=C/CC/C(C)=C/C(=O)N(CCN(C)C)CCN(C)C |  |  | 88.7% | 76.4%
22 | CC(C)=CCC/C(C)=C/CC/C(C)=C/c1ccc(C(=O)NCCN(C)C)cc1 |  |  | 73.5% | 34.2%
23 | CC(C)CCCC(C)CCCC(C)Cc1ccc(C(=O)NCCN(C)C)cc1 (centres unmarked) |  |  | 80.6% | 70.3%
24 | CC(C)=CCC/C(C)=C/CC/C(C)=C/c1ccc(C(=O)N(CCN(C)C)CCN(C)C)cc1 |  |  | 93.6% | 70.6%
25 | CC(C)CCCC(C)CCCC(C)Cc1ccc(C(=O)N(CCN(C)C)CCN(C)C)cc1 (centres unmarked) |  |  | 74.7% | 78.8%
